Data as given in ChEMBL document CHEMBL3046700, “Identification of novel inhibitors of HIV-1 integrase using pharmacophore-based virtual screening combined with molecular docking strategies” (Med Chem Res, 2013).

target: Human immunodeficiency virus type 1 integrase (Human immunodeficiency virus 1, UniProt Q7ZJM1); assay: Inhibition of Human immunodeficiency virus 1 integrase strand transfer activity using [32P]5'end-labeled linear 21 mer as substrate incubated for 30 min prior to substrate addition measured after 1 hr
Sequence (Q7ZJM1 whole entry): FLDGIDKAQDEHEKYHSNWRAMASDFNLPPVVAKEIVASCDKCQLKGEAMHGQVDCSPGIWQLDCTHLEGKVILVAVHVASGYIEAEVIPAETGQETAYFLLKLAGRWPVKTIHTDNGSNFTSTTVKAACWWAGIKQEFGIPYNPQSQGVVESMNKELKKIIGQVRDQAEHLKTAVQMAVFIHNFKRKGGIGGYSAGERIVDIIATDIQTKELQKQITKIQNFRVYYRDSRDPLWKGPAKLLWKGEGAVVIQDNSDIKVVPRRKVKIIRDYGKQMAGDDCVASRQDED

| IC50 [µM] | Compound |
| --- | --- |
| 42 | Cc1cc2c(cc1Cl)SC(C(=O)c1ccc(F)cc1)=NS2(=O)=O |
| 0.9 | O=S(=O)(/C=C/c1ccc(O)c(O)c1O)CS(=O)(=O)/C=C/c1ccc(O)c(O)c1O |
| 4.26 | Cc1cc(S(=O)(=O)Nc2nnc3c4scc(C)c4ncn23)c(S)cc1Cl |
| 0.14 | CC(C)c1nc(C(=O)NCc2ccc(F)cc2)c(O)c(=O)n1C |
| 10 | Cc1ccc(-n2ncnc2-c2nc3ccccc3nc2NS(=O)(=O)c2cc(C(=O)Nc3ccccc3)c(Cl)cc2S)cc1 |
| 700 | O=C(Oc1ccc(/C=C/S(=O)(=O)CS(=O)(=O)/C=C/c2ccc(OC(=O)c3ccccc3)c(OC(=O)c3ccccc3)c2)cc1OC(=O)c1ccccc1)c1ccccc1 |
| 12 | COc1ccc(C(=O)C2=NS(=O)(=O)c3cc(C)c(Cl)cc3S2)cc1 |
| 7.41 | Cc1cc2nc3nc(N)nc(NS(=O)(=O)c4cc(C)c(Cl)cc4S)n3c2cc1C |
| 8.7 | NNS(=O)(=O)c1cccc(OCC(=O)O)c1 |
| 14.1 | O=C1NC(=S)SC1NS(=O)(=O)c1ccc(/N=N/c2ncccn2)cc1 (stereo not given) |
